In patent publication US20260103465A1, “GLYCOGEN SYNTHASE KINASE 3 INHIBITORS AND USES THEREOF” (The Broad Institute, Inc., priority 2023, published 2026):
pIC50: −log10 of the molar value. Where two headings read alike, the source gives them in different places.

Key:
[1] = target: T1, GSK3b (GST-full length GSK3b) (Homo sapiens, UniProt P49841); assay: GSK3b TR-FRET kinase inhibition assay; assay type: biochemical
T1 construct: GST-full length GSK3b: [SignalChem G08-9G]; purchased SignalChem G08-9G
T1 sequence (P49841 whole entry): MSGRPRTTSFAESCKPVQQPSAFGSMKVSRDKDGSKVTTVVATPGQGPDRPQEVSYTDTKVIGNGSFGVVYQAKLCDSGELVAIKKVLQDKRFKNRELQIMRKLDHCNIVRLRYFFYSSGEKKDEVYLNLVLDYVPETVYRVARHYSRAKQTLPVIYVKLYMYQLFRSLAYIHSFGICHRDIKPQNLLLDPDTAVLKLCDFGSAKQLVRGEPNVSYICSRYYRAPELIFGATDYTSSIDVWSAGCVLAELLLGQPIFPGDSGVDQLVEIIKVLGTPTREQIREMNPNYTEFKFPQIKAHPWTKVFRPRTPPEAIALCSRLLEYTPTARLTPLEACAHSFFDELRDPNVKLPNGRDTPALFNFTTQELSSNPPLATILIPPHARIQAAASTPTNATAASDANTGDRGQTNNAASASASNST
How it was run: (§1)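 IC50 derived from normalized 665/615 TR-FRET signal (Tb anti-pSer641 antibody, streptavidin-d2), read after EDTA stop. Reaction: 1 nM GST-full-length enzyme, 30 min compound pre-incubation, 100 min at ambient temperature in Tris pH 7.5 with 1% DMSO, 200 nM biotinylated primed glycogen synthase peptide, ATP 2 μM to 1 mM.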

[2] = target: T2, GSK3a (GST-full length GSK3a) (Homo sapiens, UniProt P49840); assay: GSK3a TR-FRET kinase inhibition assay; assay type: biochemical
T2 construct: GST-full length GSK3a [SignalChem G08-10G]; purchased SignalChem G08-10G
T2 sequence (P49840 whole entry): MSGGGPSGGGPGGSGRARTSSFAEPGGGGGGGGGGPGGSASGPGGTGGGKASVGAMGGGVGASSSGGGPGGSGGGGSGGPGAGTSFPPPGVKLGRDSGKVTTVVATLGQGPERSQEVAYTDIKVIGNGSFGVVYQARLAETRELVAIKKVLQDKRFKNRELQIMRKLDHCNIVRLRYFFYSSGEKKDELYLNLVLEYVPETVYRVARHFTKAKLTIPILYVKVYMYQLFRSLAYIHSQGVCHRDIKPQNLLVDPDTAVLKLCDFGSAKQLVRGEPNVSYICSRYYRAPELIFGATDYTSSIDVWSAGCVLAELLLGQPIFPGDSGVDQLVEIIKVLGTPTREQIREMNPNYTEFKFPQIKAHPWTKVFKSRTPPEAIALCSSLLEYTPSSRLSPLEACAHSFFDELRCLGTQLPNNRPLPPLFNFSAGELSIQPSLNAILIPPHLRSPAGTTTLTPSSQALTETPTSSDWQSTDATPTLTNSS
How it was run: as §1

[3] = 1 mM ATP, Table 3, read-out: GSK3b TR-FRET 1 mM ATP Average IC50
[4] = 1 mM ATP, Table 3, read-out: GSK3a TR-FRET 1 mM ATP Average IC50
[5] = 100 μM ATP, read-out: GSK3b 100 μM ATP Average IC50
[6] = 100 μM ATP, read-out: GSK3a 100 μM ATP Average IC50

Row | SMILES | pIC50 [1, 3] | pIC50 [2, 4] | pIC50 [1, 5] | pIC50 [2, 6] | pIC50 ([1]; 2 μM ATP, read-out: GSK3β TR-FRET 2 μM ATP GMean IC50) | pIC50 ([2]; 4 μM ATP, read-out: GSK3α TR-FRET 4 μM ATP GMean IC50)
1 | CC1(C)CC(=O)C2=C(C1)Nc1nccc(F)c1C2(C)c1ccccc1 (single isomer, unassigned) [Compound 105B] | 5.30 to 6.00 | 5.30 to 6.00 |  |  |  | 
2 | C=Cc1ccnc2c1C(C)(c1ccccc1)C1=C(CC(C)(C)CC1=O)N2 (single isomer, unassigned) [Compound 111A] | 6.00 to 7.00 | 6.00 to 7.00 | ≥ 7.00 | ≥ 7.00 |  | 
3 | CCc1ccnc2c1C(C)(c1ccccc1)C1=C(CC(C)(C)CC1=O)N2 (single isomer, unassigned) [Compound 112A] | 5.30 to 6.00 | 5.30 to 6.00 | ≥ 7.00 | ≥ 7.00 |  | 
4 | CC1(C)CC(=O)C2=C(C1)Nc1ncc3c(c1C2(C)c1ccccc1)CCC3 (single isomer, unassigned) [Compound 118B] | 5.30 to 6.00 | 5.30 to 6.00 |  |  |  | 
5 | CC(C)c1ccnc2c1C(C)(c1ccccc1)C1=C(CC(C)(C)CC1=O)N2 (single isomer, unassigned) [Compound 120A] | 6.00 to 7.00 | 5.30 to 6.00 |  |  |  | 
6 | CC1(C)CC(=O)C2=C(C1)Nc1nccc(CC3CC3)c1C2(C)c1ccccc1 (single isomer, unassigned) [Compound 123A] | 5.30 to 6.00 | 5.30 to 6.00 |  |  |  | 
7 | CC1(C)CC(=O)C2=C(C1)Nc1nccc(CC3CC3)c1C2(C)c1ccccc1 (single isomer, unassigned) [Compound 123B] | 5.30 to 6.00 | 5.30 to 6.00 |  |  |  | 
8 | CC1(C)CC(=O)C2=C(C1)Nc1nccc(C(F)(F)F)c1C2(C)c1ccccc1 (single isomer, unassigned) [Compound 127B] | 4.70 to 5.30 | 4.70 to 5.30 |  |  |  | 
9 | CC1(C)CC(=O)C2=C(C1)Nc1ncccc1C2(C)c1cccc(-c2ccncc2)c1 (single isomer, unassigned) [Compound 131B] | 5.30 to 6.00 | 5.30 to 6.00 |  |  |  | 
10 | CC1(C)CC(=O)C2=C(C1)Nc1nccc(CC(F)(F)F)c1C2(C)c1ccccc1 (single isomer, unassigned) [Compound 132A] | 5.30 to 6.00 | 5.30 to 6.00 |  |  |  | 
11 | CC1(C)CC(=O)C2=C(C1)Nc1nccc(CC(F)(F)F)c1C2(C)c1ccccc1 (single isomer, unassigned) [Compound 132B] | 5.30 to 6.00 | 4.70 to 5.30 |  |  |  | 
12 | CC1(C)CC(=O)C2=C(C1)Nc1ncc(F)c(C(F)(F)F)c1C2(C)c1ccccc1 (single isomer, unassigned) [Compound 135A] | 6.00 to 7.00 | 6.00 to 7.00 |  |  |  | 
13 | CC1(C)CC(=O)C2=C(C1)Nc1ncc(F)c(C(F)(F)F)c1C2(C)c1ccccc1 (single isomer, unassigned) [Compound 135B] | 5.30 to 6.00 | 4.70 to 5.30 |  |  |  | 
14 | CC1(C)CC(=O)C2=C(C1)Nc1ncc(C(F)(F)F)c(F)c1C2(C)c1ccccc1 (single isomer, unassigned) [Compound 136A] | 4.70 to 5.30 | 4.70 to 5.30 |  |  |  | 
15 | CC1(C)CC(=O)C2=C(C1)Nc1ncc(C(F)(F)F)c(F)c1C2(C)c1ccccc1 (single isomer, unassigned) [Compound 136B] | 4.70 to 5.30 | 4.70 to 5.30 |  |  |  | 
16 | CC1(C)CC(=O)C2=C(C1)Nc1ncc(C(F)(F)F)c(C#N)c1C2(C)c1ccccc1 (single isomer, unassigned) [Compound 137A] | 6.00 to 7.00 | 5.30 to 6.00 |  |  |  | 
17 | CC1(C)CC(=O)C2=C(C1)Nc1ncc(C(F)(F)F)c(C#N)c1C2(C)c1ccccc1 (single isomer, unassigned) [Compound 137B] | 5.30 to 6.00 | 5.30 to 6.00 |  |  |  | 
18 | CC1(C)CC(=O)C2=C(C1)Nc1ncc(C(F)(F)F)c(Cl)c1C2(C)c1ccccc1 (single isomer, unassigned) [Compound 141A] | 5.30 to 6.00 | 4.70 to 5.30 |  |  |  | 
19 | CC1(C)CC(=O)C2=C(C1)Nc1ncc(C(F)(F)F)c(Cl)c1C2(C)c1ccccc1 (single isomer, unassigned) [Compound 141B] | 5.30 to 6.00 | 5.30 to 6.00 |  |  |  | 
20 | CCC1(c2cccc(-c3ccnc(C)c3C)c2)C2=C(CC(C)(C)CC2=O)Nc2ncccc21 (single isomer, unassigned) [Compound 147A] | 5.30 to 6.00 | 6.00 to 7.00 |  |  |  | 
21 | CCC1(c2cccc(-c3cncn3C(C)C)c2)C2=C(CC(C)(C)CC2=O)Nc2ncccc21 (single isomer, unassigned) [Compound 149B] |  |  |  |  | 6.00 to 7.00 | 6.00 to 7.00
22 | CC1(C)CC(=O)C2=C(C1)Nc1ncccc1C2(C)c1cccc(-c2ccncc2C2CCC2)c1 (single isomer, unassigned) [Compound 151A] | 5.30 to 6.00 | 5.30 to 6.00 |  |  |  | 
23 | CC1(C)CC(=O)C2=C(C1)Nc1ncccc1C2(C)c1cccc(-c2ccncc2C(C)(C)C)c1 (single isomer, unassigned) [Compound 152A] | 4.70 to 5.30 | 5.30 to 6.00 |  |  |  | 

The remaining lines, values ahead:

Row | pIC50 [1, 3] | pIC50 [2, 4] | pIC50 [1, 5] | pIC50 [2, 6] | pIC50 ([1]; 2 μM ATP, read-out: GSK3β TR-FRET 2 μM ATP GMean IC50) | pIC50 ([2]; 4 μM ATP, read-out: GSK3α TR-FRET 4 μM ATP GMean IC50) | SMILES
24 | 5.30 to 6.00 | 5.30 to 6.00 |  |  |  |  | CC1(C)CC(=O)C2=C(C1)Nc1ncc(C#N)cc1C2(C)c1ccccc1 (single isomer, unassigned) [Compound 109A]
25 | 4.70 to 5.30 | 4.70 to 5.30 |  |  |  |  | CC1(C)CC(=O)C2=C(C1)Nc1ncc(C#N)cc1C2(C)c1ccccc1 (single isomer, unassigned) [Compound 109B]
26 | 5.30 to 6.00 |  | 6.00 to 7.00 | 5.30 to 6.00 |  |  | CCc1cnc2c(c1)C(C)(c1ccccc1)C1=C(CC(C)(C)CC1=O)N2 (single isomer, unassigned) [Compound 113A]
27 | 6.00 to 7.00 | 6.00 to 7.00 |  |  |  |  | CC1(C)CC(=O)C2=C(C1)Nc1ncc(F)c(F)c1C2(C)c1ccccc1 (single isomer, unassigned) [Compound 116B]
28 | 5.30 to 6.00 | 4.70 to 5.30 | 6.00 to 7.00 | 6.00 to 7.00 |  |  | CC1(C)CC(=O)C2=C(C1)Nc1ncc(C3CC3)cc1C2(C)c1ccccc1 (single isomer, unassigned) [Compound 117A]
29 | 5.30 to 6.00 | 4.70 to 5.30 | 6.00 to 7.00 | 6.00 to 7.00 |  |  | CC(C)c1cnc2c(c1)C(C)(c1ccccc1)C1=C(CC(C)(C)CC1=O)N2 (single isomer, unassigned) [Compound 119A]
30 | 5.30 to 6.00 | 5.30 to 6.00 |  |  |  |  | CC1(C)CC(=O)C2=C(C1)Nc1ncc(F)c(C#N)c1C2(C)c1ccccc1 (single isomer, unassigned) [Compound 121B]
31 | 4.70 to 5.30 |  | 5.30 to 6.00 | 5.30 to 6.00 |  |  | CC1(C)CC(=O)C2=C(C1)Nc1ncc(C3CCC3)cc1C2(C)c1ccccc1 (single isomer, unassigned) [Compound 122A]
32 | 4.70 to 5.30 | 4.70 to 5.30 | 4.70 to 5.30 | 4.70 to 5.30 |  |  | CC1(C)CC(=O)C2=C(C1)Nc1ncc(C(C)(C)C)cc1C2(C)c1ccccc1 (single isomer, unassigned) [Compound 124A]
33 | 4.70 to 5.30 | 4.70 to 5.30 |  |  |  |  | CC1(C)CC(=O)C2=C(C1)Nc1ncc(C(C)(C)C)cc1C2(C)c1ccccc1 (single isomer, unassigned) [Compound 124B]
34 | 6.00 to 7.00 | 6.00 to 7.00 |  |  |  |  | CC1(C)CC(=O)C2=C(C1)Nc1ncc(F)c(C3CC3)c1C2(C)c1ccccc1 (single isomer, unassigned) [Compound 125A]
35 | 5.30 to 6.00 | 5.30 to 6.00 |  |  |  |  | CC1(C)CC(=O)C2=C(C1)Nc1ncc(F)c(C3CC3)c1C2(C)c1ccccc1 (single isomer, unassigned) [Compound 125B]
36 | 5.30 to 6.00 | 4.70 to 5.30 |  |  |  |  | CC1(C)CC(=O)C2=C(C1)Nc1ncc(C(F)(F)F)cc1C2(C)c1ccccc1 (single isomer, unassigned) [Compound 128A]
37 | 4.70 to 5.30 | 4.70 to 5.30 |  |  |  |  | CC1(C)CC(=O)C2=C(C1)Nc1ncc(F)cc1C2(C)c1cccc(S(C)(=O)=O)c1 (single isomer, unassigned) [Compound 139B]
38 | 6.00 to 7.00 | 5.30 to 6.00 |  |  |  |  | CC1(C)CC(=O)C2=C(C1)Nc1ncc(Br)c(F)c1C2(C)c1ccccc1 (single isomer, unassigned) [Compound 140A]
39 | 4.70 to 5.30 | 4.70 to 5.30 |  |  |  |  | CC1(C)CC(=O)C2=C(C1)Nc1ncc(Br)c(F)c1C2(C)c1ccccc1 (single isomer, unassigned) [Compound 140B]
40 | 6.00 to 7.00 | 6.00 to 7.00 |  |  |  |  | Cc1c(F)cnc2c1C(C)(c1cccc(S(C)(=O)=O)c1)C1=C(CC(C)(C)CC1=O)N2 (single isomer, unassigned) [Compound 144A]
41 | 4.70 to 5.30 | 4.70 to 5.30 |  |  |  |  | Cc1c(F)cnc2c1C(C)(c1cccc(S(C)(=O)=O)c1)C1=C(CC(C)(C)CC1=O)N2 (single isomer, unassigned) [Compound 144B]
42 | 5.30 to 6.00 | 5.30 to 6.00 |  |  |  |  | CC1(C)CC(=O)C2=C(C1)Nc1ncc(Br)c(Cl)c1C2(C)c1ccccc1 (single isomer, unassigned) [Compound 145A]
43 | 4.70 to 5.30 | 4.70 to 5.30 |  |  |  |  | CC1(C)CC(=O)C2=C(C1)Nc1ncc(Br)c(Cl)c1C2(C)c1ccccc1 (single isomer, unassigned) [Compound 145B]
44 | ≥ 7.00 | ≥ 7.00 |  |  |  |  | CC1(C)CC(=O)C2=C(C1)Nc1ncc(F)c(C#N)c1C2(C)c1cccc(S(C)(=O)=O)c1 (single isomer, unassigned) [Compound 148A]
45 | 4.70 to 5.30 | 4.70 to 5.30 |  |  |  |  | CC1(C)CC(=O)C2=C(C1)Nc1ncc(F)c(C#N)c1C2(C)c1cccc(S(C)(=O)=O)c1 (single isomer, unassigned) [Compound 148B]
46 | ≥ 7.00 | ≥ 7.00 |  |  |  |  | CC1(C)CC(=O)C2=C(C1)Nc1ncc(F)c(C3CC3)c1C2(C)c1cccc(S(C)(=O)=O)c1 (single isomer, unassigned) [Compound 153A]
